The target of data set [1] is wild-type Choristoneura fumiferana EcR (D, E and F domains) (Choristoneura fumiferana, UniProt O77240). The data set is classed as cell-based. The settings on record: WT-CtEcR, 3T3 Cells; for RMFI (relative maximum fold induction): relative to GS-E ligand. A digest of the protocol: (§1)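 NIH3T3 cells were transiently co-transfected with GAL4-DBD fused to CfEcR DEF domains (wild-type or V390I/Y410E/E274V), VP16-AD fused to chimeric human/Locusta RXR, and a GAL4-response luciferase reporter. Ligand was given at 8 doses, 0.01–33 µM, 0.33% DMSO, luciferase read at 48 h. EC50 came from fold induction over DMSO via three-parameter logistic fit; Relative Max FI was taken versus GS™-E ligand.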

In data set [2] the target is T1, [V390I/Y410E/E274V]-CfEcR (Choristoneura fumiferana, UniProt O77240).
T1 construct: assay construct b835
The data set is classed as cell-based. The settings on record: 3T3 Cells; for RMFI (relative maximum fold induction): relative to GS-E ligand. A digest of the protocol: as §1

Data set [3] has as its system RheoSwitch® Therapeutic System (RTS) gene expression. Kind of data set: In vivo induction of RTS SEAP reporter in electroporated mice. On the set-up: species or system C57BL6 mice. The settings on record: intraperitoneal injection 26 nmol/mouse; monitored seventeen days. From the text:
The wild-type D, E, and F domains from spruce budworm Choristoneura fumiferana EcR (“CfEcR-DEF”; SEQ ID NO: 1) were mutated [V107 (gtt)→1107 (att) and Y127 (tac)→E127 (gag)] and fused to a GAL4 DNA binding domain (“Gal4DBD1-147”; SEQ ID NO: 2). Helices 1 through 8 of the EF domains from Homo sapiens RXRPβ (“HsRXRβ-EF”; nucleotides 1-465 of SEQ ID NO: 4) and helices 9 through 12 of the EF domains of Locusta migratoria Ultraspiracle Protein (“LmUSP-EF”; nucleotides 403-630 of SEQ ID NO: 5) were fused to the transactivation domain from VP16 (“VP16AD”; SEQ ID NO: 6), which regulates a reporter gene human secreted alkaline phosphatase (“SEAP”, SEQ ID NO: 12) that was placed under the control of a 6xGAL4 response element (SEQ ID NO: 13) and a transthyretin promoter (SEQ ID NO: 14). Each element of the gene switch was on a separate plasmid. Receptor expression was under the control of a CMV promoter (SEQ ID NO: 15). Induction was evaluated by the amount of reporter protein expressed in the presence of ligand.
SEAP expression in serum of mice was evaluated after electroporation of the gene switch into mouse quadriceps. Mice were anesthetized with 2 μL/g of a mixture of ketamine (100 mg/mL) and xylazine (20 mg/mL). Animals were then shaved, DNA vectors injected into the muscle in a volume of 2×50 μL polyglutamic acid (12 mg/mL water), electrode conductivity gel applied, and an electrode caliber (1 cm×1 cm; model 384) was placed on hind leg. The muscle was electroporated with 200 V/cm, 8 times, for 20 msec/pulse, at 1 sec time intervals. The transverse electrical field direction was reversed after the animals received half of the pulses. Electroporation was performed with an ECM 830 electroporator from BTX Molecular Delivery Systems.
[…] In other experiments the concentration of ligand was decreased to 26 nmol/50 μL of DMSO/mouse. […]
Mouse serum was obtained by centrifugation of blood acquired by retroorbital bleeding with a small glass capillary tube. SEAP quantification was determined using a Clontech Great Escape chemiluminescence kit and by comparison with the Clontech SEAP standard. […]

Each structure is given as a SMILES string. Like-named read-outs stand apart in the source and are kept apart here.

In the case of `CCC[C@@H](N(NC(=O)c1cccc(Cl)c1)C(=O)c1cc(C)cc(C)c1)C(C)(C)C` [Example 10, (R)-3,5-Dimethyl-benzoic acid N-(1-tert-butyl-butyl)-N′-(3-chloro-benzoyl)-hydrazide], the melting point (commonly the temperature, or range, at which the solid turns liquid) was 163 to 164 °C. In data set [1] (R), the EC50 (as a rule, the concentration at which the effect is half-maximal) amounted to 94.5 nM and the “RMFI (relative maximum fold induction)” value worked out at 0.87. For the same compound, in data set [2] (R), the concentration for a half-maximal effect (EC50) was about 3 nM and the “RMFI (relative maximum fold induction)” value is on record as 0.76.
`CCC[C@H](N(NC(=O)c1cccc(OC)c1CC)C(=O)c1cc(C)cc(C)c1)C(C)(C)C` [Example 31, (S)-3,5-Dimethyl-benzoic acid N-(1-tert-butyl-butyl)-N′-(2-ethyl-3-methoxy-benzoyl)-hydrazide]: the “RTS gene reporter (SEAP) expression in mouse serum” value in data set [3] was “does not induce RTS gene reporter expression”. Also, in data set [1] (S), the midpoint of the response, the EC50, lay at 136 nM and the “RMFI (relative maximum fold induction)” value worked out at 0.52. Moreover, in data set [2] (S), the EC50 is about 30 nM and the “RMFI (relative maximum fold induction)” value is on record as 0.57.
As to `CCC[C@@H](N(NC(=O)c1ccc(CC)cc1)C(=O)c1cc(C)cc(C)c1)C(C)(C)C` [Example 12, (R)-3,5-Dimethyl-benzoic acid N-(1-tert-butyl-butyl)-N′-(4-ethyl-benzoyl)-hydrazide], the melting point lay in the range of 111 to 112 °C. In data set [1] (R), the EC50 is 23.6 nM and the “RMFI (relative maximum fold induction)” value turned out to be 0.78. Further, in data set [2] (R), it took 0.56 nM to reach a half-maximal effect (EC50) and the “RMFI (relative maximum fold induction)” value came out at 0.82.
In the same order, the values of `CCC[C@@H](N(NC(=O)c1c(F)cccc1F)C(=O)c1cc(C)cc(C)c1)C(C)(C)C` [Example 15, (R)-3,5-Dimethyl-benzoic acid N-(1-tert-butyl-butyl)-N′-(2,6-difluoro-benzoyl)-hydrazide] are 180 to 182 °C, 66.2 nM, 0.82, 0.54 nM and 0.79.

Source of the values: US20200270225A1, “Chiral Diacylhydrazine Ligands for Modulating the Expression of Exogenous Genes via an Ecdysone Receptor Complex” (Intrexon Corporation, priority 2007, published 2020).
